Among the data in article PMC12505902, “Inhibitors of trehalose-6-phosphate synthase activity in fungal pathogens compromise thermal tolerance pathways” (mBio, 2025) are MIC80 values, retold here.

What all share (test): MIC dose-response assay in YPD
What all share (assay type): cell-based

For one test, the system named is C. gattii (R265). To be noted: Cryptococcus gattii. As to the method:
(§1) Fig 4 4456dh inhibits the growth of Candida and Cryptococcus species. Two-fold dose response assays were performed against (A) C. albicans at 42°C and C. auris at 39°C, (B) C. glabrata at 42°C, and (C) C. neoformans, C. deneoformans, and C. gattii at 37°C. 4456dh was administered at the concentrations indicated. Cultures were grown in YPD at the listed temperatures for 48 hours for Candida species and 72 hours for Cryptococcus species. Experimental temperatures reflect the temperatures at which the fungi experience heat stress. Left: relative growth of treated samples was calculated by averaging technical triplicates and normalizing the OD600 of each treated well to the average OD600 of the untreated WT controls, after the absorbance due to the compound was subtracted. The MIC80 values, calculated based on the OD600 values, are indicated in the white text on each heat map. Right: representative spot assays show the ability of cells to grow after exposure to 4456dh and indicate fungicidal activity of 4456dh. TEXT PRINTED IN THE PICTURE: (A) 4456dh: C. albicans 42 °C: 13 mM; C. auris 39 °C: 7 mM | (B) 4456dh: C. glabrata 42 °C: 7.8 μM | (C) 4456dh: C. neoformans 37 °C: 7 mM; C. deneoformans 37 °C: 3 mM; C. gattii 37 °C: 7 mM DOUBTS OF THE COPYIST ABOUT THIS PICTURE: 4456dh, all panels: the picture prints no measure name with the white values on the heat maps, so each value is given only with its organism and temperature
(§2) We next tested the activity of 4456dh on Cryptococcus species at 37°C.
(§3) 123 hours. […]
(§4) 126 medium. Growth was plotted as a heat map using Excel.
(§5) 127 Wild-t y pe C. neoformans strains H99, wild-type C. deneoformans JEC21 and wild- t y pe C. gattii
(§6) 128 R265 were cultured overnight in YPD (yeast-peptone- dextrose) medium at 30 °C. Growth of the
(§7) 129 overnight cultures was quantified by measuring the OD600 and corrected for the background
(§8) 130 absorbance of the medium. Antifungal potency for 4456dh was assessed by minimum inhibitory
(§9) 131 concentration (MIC) dose-response assays performed under standard Clinical and Lab Standards
(§10) 132 Institute (CLSI) conditions. A volume of 125 µL from each cell suspension was dispensed into the
(§11) 133 wells of 96-well flat-bottom microtiter plates (Corning). An additional 25 µL of 4456dh from a series
(§12) 134 of dilutions from the 157 mM stock solution prepared in water was added to each well. Following […]
(§13) 137 replicates. Growth, as determined by a reading of absorbance at 600 nm, was normalized to
(§14) 138 untreated controls and was corrected for the absorbance of 4456dh in the YPD medium. […]
(§15) 139 minimum inhibitory concentration causing 80% growth reduction, or MIC80, was determined based […]
(§16) 157 Optical density (OD600) was determined with an Infinite PRO plate reader ( Tecan). […]

The subject of a further test is C. neoformans (H99). The note with it: Cryptococcus neoformans. As to the method:
as §1, §2, §3, §4, §5, §6, §7, §8, §9, §10, §11, §12, §13, §14, §15, §16

For the next test, the system named is C. deneoformans (JEC21). To be noted: Cryptococcus deneoformans. As to the method: as §1, with “TEXT PRINTED IN THE PICTURE: (A) 4456dh: C. albicans 42 °C: 13 mM; C. auris 39 °C: 7 mM | (B) 4456dh: C. glabrata 42 °C: 7.8 μM | (C) 4456dh: C. neoformans 37 °C: 7 mM; C. deneoformans 37 °C: 3 mM; C. gattii 37 °C: 7 mM DOUBTS OF THE COPYIST ABOUT THIS PICTURE: 4456dh, all panels: the picture prints no measure name with the white values on the heat maps, so each value is given only with its organism and temperature” left out
124 technical replicates. Growth, as determined by a reading of absorbance at 600 nm, was
125 normalized to untreated controls and was corrected for the absorbance of 4456dh in the YPD […]
as §7
130 absorbance of the medium. Antifungal potency for 4456dh was assessed by minimum inhibitory […]
as §13, §14, §15, §16

[1] abbreviates: Supplemental Table 5, This publication.

Read-outs that look alike come from different tables or passages of the source. Bounds are passed on as bounds.

In the case of `Cn1cc(-c2csc(NC(=O)Cc3ccccn3)n2)cn1` [Compound 4456dh], the MIC80 was 7 mM with C. gattii (R265) (37°C, YPD, 72 hours); 2780 µg/mL with C. gattii (R265) (setting [1]); 7 mM against C. neoformans (H99) (37°C, YPD, 72 hours); 2780 µg/mL against C. neoformans (H99) (setting [1]); over 13 mM in the test with C. deneoformans (JEC21); 3 mM with C. deneoformans (JEC21) (37°C, YPD, 72 hours, read-out: MIC80). In addition, the MIC80 with C. deneoformans (JEC21) (Supplemental Table 5, This publication, read-out: MIC80) came out at 1190 µg/mL.

A word on the MIC80: it is the lowest concentration that inhibits either 80% of growth or 80% of the strains tested, depending on the study.
